Among the test systems are OVCAR-5 ovarian; NCI/ADR-RES ovarian; RXF 393 renal; KM12 colon; SF-268 CNS; COLO 205 colon; K-562 leukemia; MDA-MB-435; SK-MEL-28 melanoma; HT29 colon.
Common to all, as to test: NCI-60 cell line screen, 48 h

SMILES strings stand for the structures.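 Dose response: 5 concentrations. Exposure: 48 h. Format: 96-well plates. Endpoint: linear interpolation; highest concentration if not reached. GI50 is the concentration that inhibits growth by half. TGI denotes the concentration required for complete inhibition of growth.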 *1 amine or outer side, *2 acyl side, *3 side chain or, on linkers, in order; H or OH if unused. Where a SMILES comes first, the peptide text is derived from it. [ ]: non-standard residue; d: D form. The star is where a group is joined. ξ: configuration not given here. X15 = CCN(CC)c1ccc2cc(N*)c(=O)oc2c1; dIva = CC[C@@](C)(N)C(=O)O; X14 = O=C(OCCN[*:1])[*:2]; Aib = CC(C)(N)C(=O)O; ξP = O=C(O)C1CCCN1; βAla = NCCC(=O)O

In the case of `Nc1n[nH]c2cccc(C#Cc3cccc(C(=O)Nc4cc(CN5CCOCC5)cc(C(F)(F)F)c4)c3)c12`, the GI50 is 3.37 µM with OVCAR-5 ovarian; 4.59 µM with NCI/ADR-RES ovarian; 2.21 µM in the test with RXF 393 renal; 3.43 µM in the test on KM12 colon; 5.66 µM in the test on SF-268 CNS; 2.7 µM in the test on COLO 205 colon. In addition, the GI50 with K-562 leukemia was 0.0651 µM; in the test on MDA-MB-435, 3.46 µM; with SK-MEL-28 melanoma it was 2.99 µM; in the test with HT29 colon it was 3.13 µM. The TGI was 25.7 µM in the test with OVCAR-5 ovarian; 23.3 µM with NCI/ADR-RES ovarian; 7.92 µM in the test on RXF 393 renal; 14.7 µM with KM12 colon; 22.1 µM in the test with SF-268 CNS; 11.1 µM with COLO 205 colon. The TGI in the test on K-562 leukemia amounted to 2.41 µM; with MDA-MB-435, 15.2 µM; with SK-MEL-28 melanoma, 12.1 µM; in the test with HT29 colon, 16.2 µM.
For `COC(=O)C1=C(OC(=O)c2ccc(Cl)cc2)C(C(=O)OC)[C@@]2(O)[C@@H](C(=O)OC)C(c3ccccc3Cl)C[C@@H]1[C@@H]2C(=O)OC` (stereo not given in full), the GI50 in the test on OVCAR-5 ovarian was 55.3 µM; with NCI/ADR-RES ovarian it was 3.41 µM; with RXF 393 renal, 2.23 µM; with KM12 colon it was 2.81 µM; in the test on SF-268 CNS, 5.41 µM; in the test on COLO 205 colon, 23.3 µM. The GI50 was 6 µM in the test on K-562 leukemia, 2.06 µM in the test on MDA-MB-435, 30.1 µM in the test on SK-MEL-28 melanoma and 6.57 µM in the test with HT29 colon. The TGI in the test on OVCAR-5 ovarian was over 100 µM; with NCI/ADR-RES ovarian it was over 100 µM; in the test with RXF 393 renal, 6.96 µM; with KM12 colon, 50.8 µM; in the test on SF-268 CNS, over 100 µM; in the test on COLO 205 colon, over 100 µM. In addition, the TGI was over 100 µM with K-562 leukemia, 4.93 µM with MDA-MB-435, over 100 µM in the test with SK-MEL-28 melanoma and over 100 µM in the test with HT29 colon.
Consider `COc1cc2c3c(n(C)c(=O)c2cc1OC)-c1cc2c(cc1/C3=C\C(N)CN)OCO2` (stereo not given), for which the GI50 in the test with OVCAR-5 ovarian was 4.43 µM; with NCI/ADR-RES ovarian, over 74.8 µM; with RXF 393 renal, 0.666 µM; in the test on KM12 colon, 2.39 µM; in the test on SF-268 CNS, 0.692 µM; in the test on COLO 205 colon, 2.08 µM. Besides, the GI50 is 3.74 µM with K-562 leukemia, 2.56 µM with MDA-MB-435, 4.45 µM in the test with SK-MEL-28 melanoma and 2.61 µM in the test on HT29 colon. The TGI was over 30.9 µM with OVCAR-5 ovarian; over 100 µM in the test with NCI/ADR-RES ovarian; 3.38 µM with RXF 393 renal; 28.3 µM in the test with KM12 colon; 15 µM in the test on SF-268 CNS; 12.1 µM in the test with COLO 205 colon. Also, the TGI with K-562 leukemia is over 71.5 µM; with MDA-MB-435, 17.3 µM; in the test on SK-MEL-28 melanoma, 41.8 µM; in the test on HT29 colon it was over 100 µM.
Consider `O=C(c1cccnc1)c1cc(-c2ccccn2)c(=O)n2ccccc12`, for which the GI50 in the test on OVCAR-5 ovarian, in the test with NCI/ADR-RES ovarian, with RXF 393 renal, in the test on KM12 colon, in the test on SF-268 CNS and with COLO 205 colon was over 100 µM each time. In addition, the GI50 in the test on K-562 leukemia, in the test on MDA-MB-435, in the test on SK-MEL-28 melanoma and in the test with HT29 colon was over 100 µM each time. The TGI with OVCAR-5 ovarian, in the test on NCI/ADR-RES ovarian, in the test with RXF 393 renal, with KM12 colon, with SF-268 CNS and in the test with COLO 205 colon was over 100 µM in each case. For the same compound, the TGI in the test with K-562 leukemia, with MDA-MB-435, in the test on SK-MEL-28 melanoma and in the test with HT29 colon was over 100 µM each time.
Turning to `CC(C)N1C(NNC(=O)c2cnccn2)=NS(=O)(=O)c2ccccc21`, the GI50 with OVCAR-5 ovarian, with NCI/ADR-RES ovarian, with RXF 393 renal, with KM12 colon, with SF-268 CNS and in the test on COLO 205 colon was over 100 µM in each case. Besides, the GI50 with K-562 leukemia, in the test on MDA-MB-435, with SK-MEL-28 melanoma and in the test with HT29 colon was over 100 µM throughout. Further, the TGI in the test with OVCAR-5 ovarian, in the test on NCI/ADR-RES ovarian, in the test on RXF 393 renal, with KM12 colon, with SF-268 CNS and in the test on COLO 205 colon was over 100 µM each time. The TGI in the test on K-562 leukemia, in the test on MDA-MB-435, with SK-MEL-28 melanoma and with HT29 colon was over 100 µM in each case.
In the case of `FC(F)(F)c1ccc(-c2cnc(Cl)nc2NCc2cc(C(F)(F)F)cc(C(F)(F)F)c2)cc1`, the GI50 was 4.52 µM with OVCAR-5 ovarian; 2.98 µM with NCI/ADR-RES ovarian; 3.15 µM in the test with RXF 393 renal; 3.06 µM in the test on KM12 colon; 3.86 µM with SF-268 CNS; 1.88 µM in the test on COLO 205 colon. Moreover, the GI50 in the test with K-562 leukemia was 3.77 µM; in the test on MDA-MB-435, 2.96 µM; in the test on SK-MEL-28 melanoma it was 3.93 µM; in the test on HT29 colon, 3.26 µM. Moreover, the TGI with OVCAR-5 ovarian is over 100 µM; in the test with NCI/ADR-RES ovarian, over 100 µM; with RXF 393 renal, over 100 µM; in the test with KM12 colon, over 100 µM; in the test on SF-268 CNS, over 100 µM; in the test with COLO 205 colon, 3.43 µM. The TGI with K-562 leukemia, in the test with MDA-MB-435, with SK-MEL-28 melanoma and with HT29 colon was over 100 µM each time.
For `CCN(CC)c1ccc2cc(NC(=O)OCCNC(=O)CCNC(=O)[C@H](CC(C)C)NC(=O)C(C)(C)NC(=O)C(C)(C)NC(=O)[C@H](CC(C)C)NC(=O)CCNC(=O)C(C)(C)NC(=O)[C@H](CC(C)C)NC(=O)CCNC(=O)[C@@](C)(CC)NC(=O)[C@H](C)NC(=O)CCNC(=O)C(C)(C)NC(=O)[C@H](C)NC(=O)[C@@H]3CCCN3C(=O)[C@@](C)(CC)NC(=O)[C@H](Cc3ccccc3)NC(=O)C3CCCN3C(=O)C(C)(C)NC(=O)C3CCCN3C(=O)C(C)(C)NC(C)=O)c(=O)oc2c1` (stereo not given in full) (Ac-[Aib][ξP][Aib][ξP]F[dIva]PA[Aib][βAla]A[dIva][βAla]L[Aib][βAla]L[Aib][Aib]L[βAla][X14]-X15), the GI50 with OVCAR-5 ovarian was 0.00506 µM; with NCI/ADR-RES ovarian, 0.176 µM; with RXF 393 renal it was 0.0049 µM; with KM12 colon, 0.00425 µM; in the test on SF-268 CNS, 0.00435 µM; with COLO 205 colon, 0.00237 µM. The GI50 with K-562 leukemia was 0.00417 µM; with MDA-MB-435 it was 0.00353 µM; in the test on SK-MEL-28 melanoma, 0.00783 µM; in the test on HT29 colon, 0.00366 µM. Also, the TGI stood at 0.116 µM in the test on OVCAR-5 ovarian; 0.378 µM in the test with NCI/ADR-RES ovarian; 0.0173 µM in the test with RXF 393 renal; 0.0348 µM with KM12 colon; 0.0187 µM in the test with SF-268 CNS; 0.006 µM with COLO 205 colon. Also, the TGI with K-562 leukemia stood at 0.0237 µM; in the test with MDA-MB-435 it was 0.0252 µM; in the test with SK-MEL-28 melanoma, 0.0325 µM; with HT29 colon, 0.103 µM.

These data come from PubChem BioAssay (NCI).
